{"source": "paper PMC6804997", "about": "(PLoS ONE, 2019)", "key": {"[1]": {"target": "T1, HDAC6 (Homo sapiens, UniProt Q9UBN7)", "T1 sequence (Q9UBN7 1-1215)": "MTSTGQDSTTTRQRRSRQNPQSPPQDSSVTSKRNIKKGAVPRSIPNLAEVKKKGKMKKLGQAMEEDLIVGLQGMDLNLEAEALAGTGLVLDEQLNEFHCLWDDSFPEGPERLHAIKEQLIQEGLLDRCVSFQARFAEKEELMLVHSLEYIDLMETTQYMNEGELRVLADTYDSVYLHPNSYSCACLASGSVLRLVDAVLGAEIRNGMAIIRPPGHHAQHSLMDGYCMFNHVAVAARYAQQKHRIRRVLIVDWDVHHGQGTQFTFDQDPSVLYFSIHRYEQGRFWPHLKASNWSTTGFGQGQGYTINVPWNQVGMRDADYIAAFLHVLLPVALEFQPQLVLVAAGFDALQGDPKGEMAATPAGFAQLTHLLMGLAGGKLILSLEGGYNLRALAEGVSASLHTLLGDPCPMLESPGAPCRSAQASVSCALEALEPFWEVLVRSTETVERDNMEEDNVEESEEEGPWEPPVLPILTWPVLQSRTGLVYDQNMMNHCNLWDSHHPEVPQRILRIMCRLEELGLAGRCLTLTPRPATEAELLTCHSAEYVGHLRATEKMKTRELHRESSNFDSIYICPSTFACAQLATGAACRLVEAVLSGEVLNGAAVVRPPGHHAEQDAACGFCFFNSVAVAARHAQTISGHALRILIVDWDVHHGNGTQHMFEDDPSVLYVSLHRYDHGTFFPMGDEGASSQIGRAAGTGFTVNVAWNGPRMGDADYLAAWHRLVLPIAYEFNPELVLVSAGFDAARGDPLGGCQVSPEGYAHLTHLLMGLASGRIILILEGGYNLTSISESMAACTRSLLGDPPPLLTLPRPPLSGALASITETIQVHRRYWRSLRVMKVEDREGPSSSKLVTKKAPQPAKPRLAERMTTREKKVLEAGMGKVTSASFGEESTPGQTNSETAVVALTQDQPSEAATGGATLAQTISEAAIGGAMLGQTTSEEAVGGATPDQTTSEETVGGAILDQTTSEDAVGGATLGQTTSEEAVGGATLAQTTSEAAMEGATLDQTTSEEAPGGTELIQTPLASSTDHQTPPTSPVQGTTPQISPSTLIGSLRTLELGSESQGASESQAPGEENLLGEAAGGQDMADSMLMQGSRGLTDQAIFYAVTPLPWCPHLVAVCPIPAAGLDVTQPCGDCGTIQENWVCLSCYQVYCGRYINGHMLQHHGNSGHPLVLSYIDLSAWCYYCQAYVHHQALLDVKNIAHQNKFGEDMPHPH", "test": "HDAC enzyme inhibition assay (Ac-peptide-AMC substrate)", "format": "biochemical", "description": "HDACs inhibition assay of F7 was performed utilizing 4-amino-7-methylcoumarin (AMC) labeled Ac-peptide (Ac-peptide-AMC) substrates, a service provided by Chempartner Company (Shanghai, China).\nThis assay was performed was performed utilizing 4-amino-7-methylcoumarin (AMC) labeled Ac-peptide (Ac-peptide-AMC) substrates, a service provided by Chempartner Company (Shanghai, China)."}, "[2]": {"system": "liver, kidney, spleen, heart and lung tissues of mice", "test": "Histological examination of organs from normal mice given F7", "format": "in vivo", "conditions": "oral F7 40 mg/kg/d for 3 days, without glycerol injection", "description": "We firstly examined whether the mice model of glycerol-induced AKI was successfully established, and tested the protective effect of F7 at a dose of 40 mg/kg/d for 3 days on renal function and pathological changes. […] We also evaluated the liver, kidney, spleen, heart and lung tissues of mice with oral administration of F7 at the same dose as that in F7+glycerol group for 3 days, but without glycerol injections.\nSupplementary file pone.0224158.s002.tif: S2 Fig Histological examinations of different organs from the normal mice administrated with F7. Photomicrographs (×200) illustrated H&E staining of the heart, liver, spleen, lung and kidney tissues from mice with oral administration of F7 at a dose of 40 mg/kg/d for 3 days but without glycerol injection. (TIF) Click here for additional data file."}, "[3]": {"system": "HK-2 cells", "test": "Annexin V/PI flow cytometry of myoglobin-stimulated HK-2 cells", "format": "cell-based, Human", "conditions": "F7 […], 5 nM and 10 nM; Mb 200 μM, 24 hrs", "description": "Human renal proximal tubule cell line (HK-2) cells were purchased from Shanghai Institute of Biochemistry and Cell Biology, Shanghai, China and maintained in DMEM/F12 (Hyclone, Beijing, China) supplemented with 10% fetal bovine serum (FBS, Hyclone, Australia) and 1% penicillin and streptomycin at 37°C under humidified atmosphere of 5% carbon dioxide. Then cells were seeded on six-well plates (Shanghai Sunub Bio-Tech Development Inc., Shanghai, China) at a density of 200,000 cells per well, divided into four groups at exponential phase: the control group (cells incubated with DMEM/F12+10%FBS), the model group (cells incubated with 200 μM ferrous myoglobin (M0630, Sigma-Aldrich, St. […]\nCell apoptosis was evaluated by flow cytometry using an Annexin V-FITC apoptosis analysis kit (AO-2001-02P-H, Tianjin Sungene Biotech Co., Ltd, Tianjin, China). After the four group of cells were cultured under the condition as described above for 24 hours, they were digested by trypsin, collected, and washed three times with PBS diluted 1×binding buffer (1ml per tube). […] After being supplemented to 500 μL using cold PBS followed by gentle vortex, samples were ready to be testes. Apoptosis signals were detected using a CytoFLEX by Beckman & Coulter."}}}
{"smiles": "Cc1nc(N(C)c2ccc(Oc3ccc(C(=O)NO)cn3)cc2)c2ccccc2n1", "note": "[F7, N-hydroxy-6-(4-(methyl(2-methylquinazolin-4-yl)amino)phenoxy)nicotinamide]", "values": [{"measurement": "HDAC6 inhibition efficacy of F7 compared with 23BB", "setting": "[1]", "value": "three times higher"}, {"measurement": "IC50", "setting": "[1]", "value": 5.8, "unit": "nM"}, {"measurement": "selectivity of HDAC6 versus other HDACs", "setting": "[1]", "value": "110-1724 times"}, {"measurement": "organ damage (histological sections of liver, kidney, spleen, heart and lung)", "setting": "[2]", "value": "did not exhibited organ damage"}, {"measurement": "growth of HK-2 cells under stimulation of myoglobin", "setting": "[3]", "value": "improved growth of HK-2 cells under stimulation of myoglobin (Mb) in a dose-dependent manner"}]}
